One assay addresses T1, Human HDAC1 (Homo sapiens, UniProt Q13547).
T1 construct: full length with C-terminal His-tag and C-terminal FLAG-tag; His (C); FLAG (C); host or cells: baculovirus expression system
In words: HDAC1 biochemical assay, AMC-labeled peptide substrate. To be noted: read-out: HDAC Isoform IC50 (nM) 1. As to the method:
(§1) Activity against all zinc-dependent HDACs 1 to 11 was assessed by using an acetylated AMC-labeled peptide substrate. The substrate RHKK(Ac)AMC was used for HDAC1, HDAC2, HDAC3, HDAC6 and HDAC10; the substrate used for HDAC8 was RHK(Ac)K(Ac)AMC. Activity against the class IIa HDACs (HDAC4, 5, 7, 9) and HDAC11 was determined using a class IIa-specific substrate, BOC-Lys(trifluoroacetyl)-AMC (“Trifluoroacetyl Lysine”; see Lahm et al, 2007, PNAS, 104, 17335-17340). All assays were based on the AMC-labeled substrate and developer combination.
(§2) The protocol involved a two-step reaction: first, the substrate with the acetylated lysine side chain is incubated with a sample containing HDAC activity, to produce the deacetylated products, which are then digested in the second step by the addition of developer to produce the fluorescent signal proportional to the amount of deacetylated substrates.
Human HDAC1 (GenBank Accession No. NM_004964), full length with C-terminal His-tag and C-terminal FLAG-tag, MW=56 kDa, expressed in baculovirus expression system.
(§3) Assay Buffer: 50 mM Tris-HCl, pH8.0, 137 mM NaCl, 2.7 mM KCl, 1 mM MgC2. Before use, 1 mg/mL BSA and DMSO are added.
HDAC1: 0.3 ng/ul HDAC1 and 50 μM HDAC substrate are in the reaction buffer with 1% DMSO final. Incubate for 1 hour at 30° C.
(§4) Stage 1: Deacetylation of substrate by incubation of HDAC enzymes with compounds
(§5) Stage 2: Development by addition of Developer to digest the deacetylated substrate, and generate the fluorescent colour; Detection: 360/460 Ex/Em

For the next assay, the target named is T2, Recombinant human HDAC6 (Homo sapiens, UniProt Q9UBN7).
T2 construct: full length, MW=159 kDa; GST (N); host or cells: Sf9 insect cells (baculovirus)
T2 sequence (Q9UBN7 1-1215): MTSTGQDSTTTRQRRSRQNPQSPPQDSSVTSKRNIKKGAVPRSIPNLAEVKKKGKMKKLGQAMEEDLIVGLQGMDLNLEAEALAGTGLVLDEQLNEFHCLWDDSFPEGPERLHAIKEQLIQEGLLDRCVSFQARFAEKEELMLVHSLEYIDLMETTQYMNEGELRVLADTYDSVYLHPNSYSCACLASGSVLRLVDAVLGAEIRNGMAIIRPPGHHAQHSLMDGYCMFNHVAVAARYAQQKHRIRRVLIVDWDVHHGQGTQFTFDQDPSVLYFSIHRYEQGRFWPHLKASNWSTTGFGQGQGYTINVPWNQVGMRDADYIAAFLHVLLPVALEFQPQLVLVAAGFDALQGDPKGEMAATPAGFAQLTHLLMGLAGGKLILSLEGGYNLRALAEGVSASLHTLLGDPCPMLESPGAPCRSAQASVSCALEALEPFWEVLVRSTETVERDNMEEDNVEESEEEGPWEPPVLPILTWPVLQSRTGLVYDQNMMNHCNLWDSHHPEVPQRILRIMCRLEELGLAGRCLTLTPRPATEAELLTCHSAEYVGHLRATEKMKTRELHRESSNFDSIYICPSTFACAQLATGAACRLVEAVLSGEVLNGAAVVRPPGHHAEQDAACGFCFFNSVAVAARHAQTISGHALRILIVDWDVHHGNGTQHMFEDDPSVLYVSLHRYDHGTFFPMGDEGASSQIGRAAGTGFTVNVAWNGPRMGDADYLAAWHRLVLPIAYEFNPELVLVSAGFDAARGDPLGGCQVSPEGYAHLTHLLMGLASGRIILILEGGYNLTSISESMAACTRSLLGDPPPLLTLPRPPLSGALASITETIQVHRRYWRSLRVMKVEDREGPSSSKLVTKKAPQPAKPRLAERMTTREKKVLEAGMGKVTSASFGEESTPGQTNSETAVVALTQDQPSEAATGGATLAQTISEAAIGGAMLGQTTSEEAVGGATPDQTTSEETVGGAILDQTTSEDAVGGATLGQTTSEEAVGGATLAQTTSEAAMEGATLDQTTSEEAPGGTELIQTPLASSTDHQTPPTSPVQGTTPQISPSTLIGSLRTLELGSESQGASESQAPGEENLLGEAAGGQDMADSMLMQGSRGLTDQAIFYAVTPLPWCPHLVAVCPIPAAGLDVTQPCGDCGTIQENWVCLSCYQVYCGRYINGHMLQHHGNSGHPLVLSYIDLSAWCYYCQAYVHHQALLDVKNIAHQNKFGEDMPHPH
The assay is described as follows: HDAC6 biochemical assay, AMC-labeled peptide substrate. Conditions: HDAC6; read-out: HDAC Isoform IC50 (nM) 6. As to the method: as §1, §2
Recombinant human HDAC6 (GenBank Accession No. BC069243), full length, MW=159 kDa, was expressed by baculovirus in Sf9 insect cells using an N-terminal GST tag.
as §3
HDAC6: 0.3 ng/ul HDAC6 and 50 μM HDAC substrate are in the reaction buffer with 1% DMSO final. Incubate for 1 hours at 30° C.
as §4, §5

A further assay has as its target T3, Human HDAC7 (Homo sapiens, UniProt Q8WUI4).
T3 construct: (a.a. 518-end) with N-terminal GST tag; GST (N); host or cells: baculovirus expression system
T3 sequence (Q8WUI4 518-952 limits assumed): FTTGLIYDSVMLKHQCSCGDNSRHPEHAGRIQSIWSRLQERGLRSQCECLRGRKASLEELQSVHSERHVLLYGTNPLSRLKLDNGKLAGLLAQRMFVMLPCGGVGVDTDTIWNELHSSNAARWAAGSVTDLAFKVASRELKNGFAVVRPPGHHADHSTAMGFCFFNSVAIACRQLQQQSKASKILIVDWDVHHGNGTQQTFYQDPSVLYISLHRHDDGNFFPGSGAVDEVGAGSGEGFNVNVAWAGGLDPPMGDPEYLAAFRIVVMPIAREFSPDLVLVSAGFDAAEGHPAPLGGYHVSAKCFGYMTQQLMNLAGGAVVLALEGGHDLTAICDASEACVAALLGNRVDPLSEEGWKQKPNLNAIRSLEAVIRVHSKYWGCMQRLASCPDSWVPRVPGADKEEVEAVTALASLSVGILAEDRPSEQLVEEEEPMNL
The assay is described as follows: HDAC7 biochemical assay, class IIa-specific substrate. Conditions: read-out: HDAC Isoform IC50 (nM) 7. As to the method:
as §1, §2
Human HDAC7 (GenBank Accession No. AY302468), (a.a. 518-end) with N-terminal GST tag, MW=78 kDa, expressed in baculovirus expression system.
as §3
(§6) For class IIa HDACs, assay buffer is the same.
HDAC7: 0.001 ng/ul HDAC7 and 50 μM Class IIa HDAC substrate are in the reaction buffer with 1% DMSO final. Incubate for 30 minutes at room temperature.
as §4, §5

In another assay the target is T4, Human HDAC4 (Homo sapiens, UniProt P56524).
T4 construct: amino acids 627-1085 with N-terminal GST tag; GST (N); host or cells: baculovirus expression system
T4 sequence (P56524 627-1084 limits assumed): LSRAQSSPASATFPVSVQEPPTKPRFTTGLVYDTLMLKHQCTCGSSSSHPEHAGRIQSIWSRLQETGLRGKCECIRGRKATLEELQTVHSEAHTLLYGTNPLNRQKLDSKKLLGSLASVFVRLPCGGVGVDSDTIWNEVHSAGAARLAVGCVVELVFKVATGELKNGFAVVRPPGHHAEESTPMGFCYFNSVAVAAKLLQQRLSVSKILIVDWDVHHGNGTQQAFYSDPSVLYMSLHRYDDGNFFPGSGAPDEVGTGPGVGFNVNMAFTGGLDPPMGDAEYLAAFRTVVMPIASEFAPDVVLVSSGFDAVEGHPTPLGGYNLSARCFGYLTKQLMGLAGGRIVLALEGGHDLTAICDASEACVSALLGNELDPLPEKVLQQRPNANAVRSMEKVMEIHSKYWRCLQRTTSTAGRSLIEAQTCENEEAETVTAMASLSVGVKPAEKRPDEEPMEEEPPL
The assay is described as follows: HDAC4 biochemical assay, class IIa-specific substrate. Conditions: read-out: HDAC Isoform IC50 (nM) 4. As to the method: as §1, §2
Human HDAC4 (GenBank Accession No. NM_006037), amino acids 627-1085 with N-terminal GST tag, MW=75.2 kDa, expressed in baculovirus expression system.
as §3, §6
HDAC4: 0.004 ng/ul HDAC4 and 50 μM Class IIa HDAC substrate are in the reaction buffer with 1% DMSO final. Incubate for 30 minutes at room temperature.
as §4, §5

A further assay addresses T5, Human HDAC5 (Homo sapiens, UniProt Q9UQL6).
T5 construct: full length with C-terminal His tag, MW=51.1 kDa; His (C); host or cells: baculovirus expression system
The assay is described as follows: HDAC5 biochemical assay, class IIa-specific substrate. To be noted: read-out: HDAC Isoform IC50 (nM) 5. As to the method: as §1, §2
Human HDAC5 (GenBank Accession No. NM_005474), full length with C-terminal His tag, MW=51.1 kDa, expressed in baculovirus expression system.
as §3, §6
HDAC5: 0.05 ng/ul HDAC5 and 50 μM Class IIa HDAC substrate are in the reaction buffer with 1% DMSO final. Incubate for 30 minutes at room temperature.
as §4, §5

The next assay concerns the target T6, Human HDAC9 (Homo sapiens, UniProt Q9UKV0).
T6 construct: amino acids 604-1066 with C-terminal His tag; His (C); host or cells: baculovirus expression system
In words: HDAC9 biochemical assay, class IIa-specific substrate. Conditions: read-out: HDAC Isoform IC50 (nM) 9. As to the method:
as §1, §2
Human HDAC9 (GenBank Accession No. NM_178423), amino acids 604-1066 with C-terminal His tag, MW=50.7 kDa, expressed in baculovirus expression system.
as §3, §6
HDAC9: 0.06 ng/ul HDAC9 and 50 μM Class IIa HDAC substrate are in the reaction buffer with 1% DMSO final. Incubate for 30 minutes at room temperature.
as §4, §5

T5 sequence (Q9UQL6 656-1122 limits assumed): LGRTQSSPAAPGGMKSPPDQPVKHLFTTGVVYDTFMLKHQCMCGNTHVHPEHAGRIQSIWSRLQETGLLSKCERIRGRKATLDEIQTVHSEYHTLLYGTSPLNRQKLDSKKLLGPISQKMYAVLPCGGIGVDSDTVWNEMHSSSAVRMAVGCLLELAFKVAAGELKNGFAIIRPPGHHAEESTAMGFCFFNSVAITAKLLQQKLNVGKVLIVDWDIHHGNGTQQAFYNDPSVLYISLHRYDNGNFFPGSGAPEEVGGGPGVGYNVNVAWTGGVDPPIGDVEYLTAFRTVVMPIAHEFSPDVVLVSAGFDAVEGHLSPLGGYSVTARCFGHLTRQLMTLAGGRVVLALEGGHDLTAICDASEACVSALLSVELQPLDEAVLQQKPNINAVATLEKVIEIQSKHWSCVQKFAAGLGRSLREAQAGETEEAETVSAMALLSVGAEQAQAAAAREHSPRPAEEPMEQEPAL
T6 sequence (Q9UKV0 604-1066 isoform Q9UKV0-5): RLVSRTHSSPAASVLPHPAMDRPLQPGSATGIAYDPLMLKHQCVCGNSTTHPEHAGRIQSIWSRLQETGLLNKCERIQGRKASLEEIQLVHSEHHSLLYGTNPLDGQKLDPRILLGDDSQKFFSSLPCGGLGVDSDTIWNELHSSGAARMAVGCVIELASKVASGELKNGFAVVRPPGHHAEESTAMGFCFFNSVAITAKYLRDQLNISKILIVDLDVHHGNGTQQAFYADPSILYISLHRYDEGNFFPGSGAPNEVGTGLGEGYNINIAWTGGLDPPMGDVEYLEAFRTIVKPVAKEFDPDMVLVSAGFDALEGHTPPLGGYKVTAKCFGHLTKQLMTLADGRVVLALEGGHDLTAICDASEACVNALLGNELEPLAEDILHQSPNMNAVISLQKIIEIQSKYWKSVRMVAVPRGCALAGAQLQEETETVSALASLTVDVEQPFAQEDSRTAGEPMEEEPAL
T1 sequence (Q13547 whole entry): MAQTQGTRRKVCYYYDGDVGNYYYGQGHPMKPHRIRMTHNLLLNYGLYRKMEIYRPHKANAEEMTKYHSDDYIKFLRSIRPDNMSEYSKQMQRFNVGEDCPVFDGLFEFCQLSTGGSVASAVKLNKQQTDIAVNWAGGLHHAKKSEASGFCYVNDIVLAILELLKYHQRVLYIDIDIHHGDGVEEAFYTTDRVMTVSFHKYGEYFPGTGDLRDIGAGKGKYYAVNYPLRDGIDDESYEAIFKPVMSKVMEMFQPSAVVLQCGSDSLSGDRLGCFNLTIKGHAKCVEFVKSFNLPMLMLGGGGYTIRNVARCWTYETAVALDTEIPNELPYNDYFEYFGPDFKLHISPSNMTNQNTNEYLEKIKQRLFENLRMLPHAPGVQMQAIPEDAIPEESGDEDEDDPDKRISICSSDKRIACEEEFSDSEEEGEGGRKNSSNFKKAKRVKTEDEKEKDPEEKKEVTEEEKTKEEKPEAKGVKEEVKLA

For the compound `FC(F)(F)c1cnnc(N(Cc2ccc(-c3noc(C(F)(F)F)n3)s2)c2ncccn2)c1` [Example EK, N-(Pyrimidin-2-yl)-5-(trifluoromethyl)-N-({5-[5-(trifluoromethyl)-1,2,4-oxadiazol-3-yl]thiophen-2-yl}methyl)pyridazin-3-amine], the IC50 on Human HDAC1 is above 10000 nM; at Recombinant human HDAC6 it was at most 10000 nM; on Human HDAC7, above 10000 nM; on Human HDAC4, above 10000 nM; at Human HDAC5, at most 10000 nM; at Human HDAC9, above 10000 nM.

For the compound `COc1cc(N(Cc2ccc(-c3noc(C(F)(F)F)n3)s2)c2cnccn2)ncn1` [Example CH, 6-Methoxy-N-(pyrazin-2-yl)-N-({5-[5-(trifluoromethyl)-1,2,4-oxadiazol-3-yl]thiophen-2-yl}methyl)pyrimidin-4-amine], the IC50 on Human HDAC1 was above 10000 nM; on Recombinant human HDAC6, at most 10000 nM; on Human HDAC7, at most 10000 nM; at Human HDAC4 it was at most 10000 nM; on Human HDAC5, at most 10000 nM; at Human HDAC9 it was at most 10000 nM.

As to `COc1ccc2ncnc(N(Cc3ccc(-c4noc(C(F)(F)F)n4)s3)c3cnccn3)c2c1` [Example CN, 6-Methoxy-N-(pyrazin-2-yl)-N-({5-[5-(trifluoromethyl)-1,2,4-oxadiazol-3-yl]thiophen-2-yl}methyl)quinazolin-4-amine], the 50% inhibitory concentration (IC50) at Human HDAC1 is above 10000 nM; on Recombinant human HDAC6, at most 1000 nM; on Human HDAC7, at most 10000 nM; at Human HDAC4, at most 10000 nM; on Human HDAC5, at most 1000 nM; on Human HDAC9, at most 10000 nM.

`CS(=O)(=O)c1cnc(N(Cc2ccc(-c3noc(C(F)(F)F)n3)s2)c2cnccn2)cn1` [Example BL, 5-Methanesulfonyl-N-(pyrazin-2-yl)-N-({5-[5-(trifluoromethyl)-1,2,4-oxadiazol-3-yl]thiophen-2-yl}methyl)pyrazin-2-amine]: the IC50 on Human HDAC1 was above 10000 nM; at Recombinant human HDAC6 it was at most 10000 nM; at Human HDAC7, at most 1000 nM; on Human HDAC4, at most 1000 nM; on Human HDAC5, at most 1000 nM; at Human HDAC9 it was at most 10000 nM.

As to `FC(F)(F)c1cnnc(N(Cc2ccc(-c3noc(C(F)(F)F)n3)s2)c2ccncn2)c1` [Example EL, N-(Pyrimidin-4-yl)-5-(trifluoromethyl)-N-({5-[5-(trifluoromethyl)-1,2,4-oxadiazol-3-yl]thiophen-2-yl}methyl)pyridazin-3-amine], the IC50 was above 10000 nM on Human HDAC1; at most 1000 nM on Recombinant human HDAC6; at most 10000 nM at Human HDAC7; at most 10000 nM at Human HDAC4; at most 1000 nM at Human HDAC5; at most 10000 nM on Human HDAC9.

As to `FC(F)(F)c1nc(-c2ccc(CN(c3cnccn3)c3ccc(-c4ccccc4)nn3)s2)no1` [Example DN, 6-Phenyl-N-(pyrazin-2-yl)-N-({5-[5-(trifluoromethyl)-1,2,4-oxadiazol-3-yl]thiophen-2-yl}methyl)pyridazin-3-amine], the IC50 is at most 10000 nM on Human HDAC1; at most 500 nM at Recombinant human HDAC6; at most 500 nM on Human HDAC7; at most 1000 nM at Human HDAC4; at most 500 nM at Human HDAC5; at most 10000 nM on Human HDAC9.

With `COc1ccnc(N(Cc2ccc(-c3noc(C(F)(F)F)n3)s2)c2cnccn2)n1` [Example AU, 4-Methoxy-N-(pyrazin-2-yl)-N-({5-[5-(trifluoromethyl)-1,2,4-oxadiazol-3-yl]thiophen-2-yl}methyl)pyrimidin-2-amine], the IC50 was above 10000 nM at Human HDAC1; at most 10000 nM at Recombinant human HDAC6; at most 10000 nM at Human HDAC7; at most 10000 nM at Human HDAC4; at most 10000 nM at Human HDAC5; at most 10000 nM at Human HDAC9.

Take `FC(F)(F)c1nc(-c2ccc(CN(c3cnccn3)c3ccc4nncn4n3)s2)no1` [Example DU, N-{[1,2,4]Triazolo[4,3-b]pyridazin-6-yl}-N-({5-[5-(trifluoromethyl)-1,2,4-oxadiazol-3-yl]thiophen-2-yl}methyl)pyrazin-2-amine]: the IC50 on Human HDAC1 was above 10000 nM; at Recombinant human HDAC6, at most 10000 nM; on Human HDAC7, at most 1000 nM; at Human HDAC4 it was at most 10000 nM; at Human HDAC5, at most 10000 nM; at Human HDAC9 it was at most 10000 nM.

As a reminder, the IC50 is the point on the concentration scale where inhibition reaches its midpoint.
